Calls of active or inactive are those of the source. No cut-off for these calls is given here.

In ChEMBL document CHEMBL5505995, “Discovery of novel urea derivatives as ferroptosis and autophagy inducer for human colon cancer treatment” (Eur J Med Chem, 2024) one finds IC50 and Activity data, which are given here for 30 compounds.

The first experiment relates to HT-29. Kind of experiment: Antiproliferative activity against human HT-29 cells assessed as inhibition of cell growth incubated for 48 hrs by MTT assay. It is filed as functional, cell-based. To be noted: HT-29, 48 h.
Take `COc1ccc2c(c1)NCCN2C(=O)Nc1ccccc1C(F)(F)F`: the half-maximal inhibitory concentration (IC50) was 28.6 µM.

As for `CNC(=O)c1cc(Oc2ccc(NC(=O)Nc3ccc(Cl)c(C(F)(F)F)c3)cc2)ccn1` [SORAFENIB], the IC50 was found to be 3.56 µM.

As to `COc1ccc2c(c1)NCCN2C(=O)Nc1ccccc1OC`, the IC50 amounted to 19.1 µM.

For `COc1ccc2c(c1)NCCN2C(=O)Nc1ccccc1C`, the half-maximal inhibitory concentration (IC50) is 26.6 µM.

As for `COC(=O)c1ccc([C@H]2c3[nH]c4ccccc4c3C[C@H](C(=O)OC)N2C(=O)CCl)cc1`, the IC50 was found to be 3.25 µM.

With `COc1ccc(OC)c(NC(=O)N2CCNc3cc(OC)ccc32)c1`, the IC50 is 14.9 µM.

For the compound `COc1ccc2c(c1)NCCN2C(=O)NC(C)(C)C`, the half-inhibitory concentration (IC50) turned out to be 28.4 µM.

Turning to `CCOc1ccccc1-n1c(C(C)N2CCN(C(=O)COc3ccc(Cl)cc3)CC2)nc2ccccc2c1=O` (stereo not drawn) [ERASTIN], the IC50 was determined as 20.9 µM.

For another experiment, the system named is HeLa. The experiment in a line: Antiproliferative activity against human HeLa cells assessed as inhibition of cell growth incubated for 48 hrs by MTT assay.
Conditions: not given
It is filed as functional, cell-based.
In the case of `COc1ccc2c(c1)NCCN2C(=O)Nc1ccccc1C(F)(F)F`, the half-maximal inhibitory concentration (IC50) stood at 16.6 µM.

As for `CNC(=O)c1cc(Oc2ccc(NC(=O)Nc3ccc(Cl)c(C(F)(F)F)c3)cc2)ccn1` [SORAFENIB], the IC50 came out at 10.3 µM.

As for `COc1ccc2c(c1)NCCN2C(=O)Nc1ccccc1OC`, the half-maximal inhibitory concentration (IC50) is 11.7 µM.

Regarding `COc1ccc2c(c1)NCCN2C(=O)Nc1ccccc1C`, the half-maximal inhibitory concentration (IC50) was 22.7 µM.

For the compound `COc1ccc(OC)c(NC(=O)N2CCNc3cc(OC)ccc32)c1`, the IC50 is 6.52 µM.

For the compound `COc1ccc2c(c1)NCCN2C(=O)NC(C)(C)C`, the IC50 turned out to be 25.4 µM.

A further experiment relates to K562. The experiment in a line: Antiproliferative activity against human K562 cells assessed as inhibition of cell growth incubated for 48 hrs by MTT assay. It is filed as functional, cell-based. Conditions: K562, 48 h. In general terms: Formazan colour is commonly taken as a measure of viable cells.
`COc1ccc2c(c1)NCCN2C(=O)Nc1ccccc1C(F)(F)F`: the IC50 was determined as 34.4 µM.

Regarding `COc1ccc2c(c1)NCCN2C(=O)Nc1ccccc1OC`, the IC50 came out at 49.1 µM.

As for `COc1ccc2c(c1)NCCN2C(=O)Nc1ccccc1C`, the IC50 worked out at 19.4 µM.

`COc1ccc(OC)c(NC(=O)N2CCNc3cc(OC)ccc32)c1`: the 50% inhibitory concentration (IC50) came to 4.57 µM.

Consider `COc1ccc2c(c1)NCCN2C(=O)NC(C)(C)C`, for which the IC50 was determined as 28.3 µM.

A further experiment has as its system MCF7. The experiment in a line: Antiproliferative activity against human MCF7 cells assessed as inhibition of cell growth incubated for 48 hrs by MTT assay. It is filed as functional, cell-based. Conditions: MCF7, 48 h.
Regarding `COc1ccc2c(c1)NCCN2C(=O)Nc1ccccc1C(F)(F)F`, the IC50 stood at 48 µM.

Consider `CNC(=O)c1cc(Oc2ccc(NC(=O)Nc3ccc(Cl)c(C(F)(F)F)c3)cc2)ccn1` [SORAFENIB], for which the IC50 is 9.81 µM.

Take `COc1ccc2c(c1)NCCN2C(=O)Nc1ccccc1OC`: the half-inhibitory concentration (IC50) was above 50 µM.

Take `COc1ccc2c(c1)NCCN2C(=O)Nc1ccccc1C`: the half-maximal inhibitory concentration (IC50) is above 50 µM.

As to `COc1ccc(OC)c(NC(=O)N2CCNc3cc(OC)ccc32)c1`, the IC50 came out at 40.3 µM.

Take `COc1ccc2c(c1)NCCN2C(=O)NC(C)(C)C`: the IC50 is 36.4 µM.

Another experiment has as its system HepG2. Kind of experiment: Antiproliferative activity against human HepG2 cells assessed as inhibition of cell growth incubated for 48 hrs by MTT assay. To be noted: HepG2, 48 h. It is filed as functional, cell-based.
`COc1ccc2c(c1)NCCN2C(=O)Nc1ccccc1C(F)(F)F`: the IC50 amounted to 40.4 µM.

On to `CNC(=O)c1cc(Oc2ccc(NC(=O)Nc3ccc(Cl)c(C(F)(F)F)c3)cc2)ccn1` [SORAFENIB], for which the IC50 is 11.2 µM.

On to `COc1ccc2c(c1)NCCN2C(=O)Nc1ccccc1OC`, for which the IC50 is 43.5 µM.

Take `COc1ccc2c(c1)NCCN2C(=O)Nc1ccccc1C`: the IC50 was found to be 17.6 µM.

`COc1ccc(OC)c(NC(=O)N2CCNc3cc(OC)ccc32)c1`: the IC50 was 20.5 µM.

With `COc1ccc2c(c1)NCCN2C(=O)NC(C)(C)C`, the 50% inhibitory concentration (IC50) was 15.7 µM.

The test system of a further experiment is HT-29. Kind of experiment: Antiproliferative activity against human HT-29 cells assessed as inhibition of cell growth at 1 to 10 uM incubated for 48 hrs by MTT assay. It is filed as functional, cell-based. To be noted: dose 1-10 µM.
Regarding `COc1ccc2c(c1)NCCN2C(=O)Nc1ccc(Cl)c(C(F)(F)F)c1`, the result was Active.

For `COc1ccc2c(c1)NCCN2C(=O)Nc1ccc(C)cc1`, the outcome was Active.

With `COc1ccc(NC(=O)N2CCNc3cc(OC)ccc32)cc1`, the result was Active.

Turning to `COc1ccc2c(c1)NCCN2C(=O)Nc1cccc2ccccc12`, the outcome was inactive.

For the compound `COc1ccc2c(c1)NCCN2C(=O)Nc1ccc(OC(F)(F)F)cc1`, the result was Active.

As for `O=C(Nc1cccc2ccccc12)N1CCNc2ccccc21`, the result was Active.

As to `COc1ccc2c(c1)NCCN2C(=O)Nc1ccc(N)cc1`, the outcome was Active.

With `COc1ccc2c(c1)NCCN2C(=O)Nc1ccccc1C(F)(F)F`, the outcome was Active.

With `COc1ccc2c(c1)NCCN2C(=O)Nc1ccccc1OC`, the result was Active.

Take `Cc1ccc(NC(=O)N2CCNc3ccccc32)cc1`: the outcome was Active.

On to `COc1ccc2c(c1)NCCN2C(=O)Nc1ccc(Cl)cc1`, for which the result was Active.

`COc1ccc2c(c1)NCCN2C(=O)Nc1ccccc1C`: the outcome was Active.

For the compound `CC(C)NC(=O)N1CCNc2ccccc21`, the result was Active.

Regarding `COC(=O)c1ccc2c(c1)NCCN2C(=O)Nc1ccc(C)cc1`, the result was inactive.

Consider `COc1ccc(OC)c(NC(=O)N2CCNc3cc(OC)ccc32)c1`, for which the outcome was Active.

As for `COc1ccc2c(c1)NCCN2C(=O)NC(C)(C)C`, the result was Active.

As for `COc1ccc2c(c1)NCCN2C(=O)Nc1c(C)cccc1C`, the result was Active.

For the compound `CCNC(=O)N1CCNc2cc(OC)ccc21`, the result was Active.

Consider `COC(=O)c1ccc2c(c1)NCCN2C(=O)Nc1ccc(OC)cc1`, for which the outcome was inactive.

Take `COc1ccc2c(c1)NCCN2C(=O)NC1CCCCC1`: the result was Active.

As to `Cc1ccc(NC(=O)N2CCNc3ncccc32)cc1`, the outcome was inactive.

For the compound `COc1ccc2c(c1)NCCN2C(=O)NCCCCl`, the result was Active.

As for `COc1cccc(NC(=O)N2CCNc3cc(OC)ccc32)c1`, the result was Active.

Consider `O=C(NCCCl)N1CCNc2ncccc21`, for which the outcome was inactive.

Take `O=C(Nc1ccc(OC(F)(F)F)cc1)N1CCNc2ccccc21`: the outcome was Active.

Consider `COc1ccccc1NC(=O)N1CCNc2ncccc21`, for which the outcome was inactive.

`COc1ccc(NC(=O)N2CCNc3ccccc32)cc1`: the outcome was Active.

A word on the IC50: it is the midpoint of a concentration-inhibition curve.
